Results taken from doi:10.1101/2024.08.19.608619, “Discovery of potent SARS-CoV-2 nsp3 macrodomain inhibitors uncovers lack of translation to cellular antiviral response” (bioRxiv, 2024).
Like-named read-outs stand apart in the source and are kept apart here.

How the values were obtained:
[1] = target: T1, SARS-CoV-2 nsp3-mac1 (Severe acute respiratory syndrome coronavirus 2, UniProt P0DTD1); assay: biochemical; type: biochemical; conditions: SARS-CoV-2 nsp3 macrodomain TR-FRET single point
[2] = target: T1, SARS-CoV-2 nsp3-mac1; assay: biochemical; set-up: SARS-CoV-2 nsp3 macrodomain TR-FRET single point, per cent inhibition, n=2
[3] = read-out: perc_inhibition_mean, batch_name=ASAP-0000196-002
[4] = read-out: perc_inhibition_mean, batch_name=ASAP-0000199-002
[5] = read-out: perc_inhibition_mean, batch_name=ASAP-0000200-002

Cc1cc(NCc2ncccc2O)ncn1 [ASAP-0000124]
perc_inhibition_mean ([1]; concentration 50.0 uM): -3.335% | inhibition at 50 µM ([2]; read-out: perc_inhibition_mean, batch_name=ASAP-0000124-001): -3.33%

Cn1nc(NC(=O)c2cc3nccn3c(=O)[nH]2)c2nccnc21 [ASAP-0000125]
perc_inhibition_mean ([1]; concentration 50.0 uM): -1.913% | inhibition at 50 µM ([2]; read-out: perc_inhibition_mean, batch_name=ASAP-0000125-001): -1.91%

Cn1c(C(=O)NCCNC(=O)c2ccco2)cc2c(=O)n3ccccc3nc21 [ASAP-0000126]
perc_inhibition_mean ([1]; concentration 50.0 uM): -4.472% | inhibition at 50 µM ([2]; read-out: perc_inhibition_mean, batch_name=ASAP-0000126-001): -4.47%

CCn1cc(CNc2nc3[nH]cnc3c(=O)[nH]2)nn1 [ASAP-0000127]
perc_inhibition_mean ([1]; concentration 50.0 uM): -0.991% | inhibition at 50 µM ([2]; read-out: perc_inhibition_mean, batch_name=ASAP-0000127-001): -0.991%

O=C(NCc1nc(-c2ccco2)n[nH]1)c1cc(=O)n2ncnc2[nH]1 [ASAP-0000128]
perc_inhibition_mean ([1]; concentration 50.0 uM): -2.599% | inhibition at 50 µM ([2]; read-out: perc_inhibition_mean, batch_name=ASAP-0000128-001): -2.6%

COCc1cc(CC(=O)Nc2ncnc3[nH]cnc23)no1 [ASAP-0000129]
perc_inhibition_mean ([1]; concentration 50.0 uM): 2.968% | inhibition at 50 µM ([2]; read-out: perc_inhibition_mean, batch_name=ASAP-0000129-001): 2.97%

NS(=O)(=O)c1ccccc1CNc1ncnc2[nH]ccc12 [ASAP-0000130]
perc_inhibition_mean ([1]; concentration 50.0 uM): 3.656% | inhibition at 50 µM ([2]; read-out: perc_inhibition_mean, batch_name=ASAP-0000130-001): 3.66%

O=C(Nc1ccc(C(=O)NCc2c(C(=O)O)[nH]c3ccccc23)cc1)NC1CC1 [ASAP-0000131]
perc_inhibition_mean ([1]; concentration 50.0 uM): 86.217% | inhibition at 50 µM ([2]; read-out: perc_inhibition_mean, batch_name=ASAP-0000131-001): 86.2%

O=C(Nc1cnc2[nH]ncc2c1)C1(c2ccccc2)CC1 [ASAP-0000133]
perc_inhibition_mean ([1]; concentration 50.0 uM): 3.207% | inhibition at 50 µM ([2]; read-out: perc_inhibition_mean, batch_name=ASAP-0000133-001): 3.21%

COC(=O)c1cc2c(Oc3ccccc3C#N)ncnc2[nH]1 [ASAP-0000135]
perc_inhibition_mean ([1]; concentration 50.0 uM): 2.922% | inhibition at 50 µM ([2]; read-out: perc_inhibition_mean, batch_name=ASAP-0000135-001): 2.92%

O=C(Cn1c(=O)[nH]c2ccccc21)Nc1cnc2[nH]ncc2c1 [ASAP-0000137]
perc_inhibition_mean ([1]; concentration 50.0 uM): 1.776% | inhibition at 50 µM ([2]; read-out: perc_inhibition_mean, batch_name=ASAP-0000137-001): 1.78%

O=C(Nc1cnn(C2CCNCC2)c1)c1ncnc2[nH]ccc12 [ASAP-0000138]
perc_inhibition_mean ([1]; concentration 50.0 uM): -1.896% | inhibition at 50 µM ([2]; read-out: perc_inhibition_mean, batch_name=ASAP-0000138-001): -1.9%

CC(C)n1cc(S(=O)(=O)Nc2cnc3[nH]ncc3c2)cn1 [ASAP-0000139]
perc_inhibition_mean ([1]; concentration 50.0 uM): 1.555% | inhibition at 50 µM ([2]; read-out: perc_inhibition_mean, batch_name=ASAP-0000139-001): 1.55%

Cc1cccc(Cl)c1S(=O)(=O)Nc1cnc2[nH]ncc2c1 [ASAP-0000140]
perc_inhibition_mean ([1]; concentration 50.0 uM): -0.254% | inhibition at 50 µM ([2]; read-out: perc_inhibition_mean, batch_name=ASAP-0000140-001): -0.254%

Cn1c(C(=O)NCCn2cccc2)cc2c(=O)n3ccccc3nc21 [ASAP-0000188]
perc_inhibition_mean ([1]; concentration 50.0 uM): 2.262% | inhibition at 50 µM ([2]; read-out: perc_inhibition_mean, batch_name=ASAP-0000188-001): 2.26%

CCn1cc(CNc2cc3c(O)ncnc3cn2)nn1 [ASAP-0000189]
perc_inhibition_mean ([1]; concentration 50.0 uM): 1.671% | inhibition at 50 µM ([2]; read-out: perc_inhibition_mean, batch_name=ASAP-0000189-001): 1.67%

CSc1ccccc1NC(=O)c1ncnc2[nH]ccc12 [ASAP-0000190]
perc_inhibition_mean ([1]; concentration 50.0 uM): -5.805% | inhibition at 50 µM ([2]; read-out: perc_inhibition_mean, batch_name=ASAP-0000190-001): -5.8%

CSc1cccc(NC(=O)c2ncnc3[nH]ccc23)c1 [ASAP-0000192]
perc_inhibition_mean ([1]; concentration 50.0 uM): -4.669% | inhibition at 50 µM ([2]; read-out: perc_inhibition_mean, batch_name=ASAP-0000192-001): -4.67%

OC[C@@]1(Cc2ccc(F)cc2)CCN(c2ncnc3[nH]ccc23)C1 [ASAP-0000194]
perc_inhibition_mean ([1]; concentration 50.0 uM): 5.07% | inhibition at 50 µM ([2]; read-out: perc_inhibition_mean, batch_name=ASAP-0000194-001): 5.07%

Cc1ncc(NCc2cnc3c(c2)NC(=O)CO3)cc1Cl [ASAP-0000195]
perc_inhibition_mean ([1]; concentration 50.0 uM): -0.368% | inhibition at 50 µM ([2]; read-out: perc_inhibition_mean, batch_name=ASAP-0000195-001): -0.368%

c1cc(-c2nnc(Sc3ncnc4[nH]ccc34)[nH]2)ccn1 [ASAP-0000196]
perc_inhibition_mean ([1]; concentration 50.0 uM): 5.47% | perc_inhibition_mean ([1]; concentration 50.0 uM, n=2): 10.682% | perc_inhibition_mean ([1]; concentration 100.0 uM, n=2): 3.318% | inhibition at 50 µM ([2]; read-out: perc_inhibition_mean, batch_name=ASAP-0000196-001): 5.47% | inhibition at 50 µM [2, 3]: 10.7% | inhibition at 100 µM [2, 3]: 3.32%

c1coc(CNc2ncnc3[nH]cnc23)c1 [ASAP-0000198]
perc_inhibition_mean ([1]; concentration 50.0 uM): 2.634% | inhibition at 50 µM ([2]; read-out: perc_inhibition_mean, batch_name=ASAP-0000198-001): 2.63%

c1nc(-c2nc(-c3cc(C4CC4)[nH]n3)no2)c2cc[nH]c2n1 [ASAP-0000199]
perc_inhibition_mean ([1]; concentration 50.0 uM): -2.809% | perc_inhibition_mean ([1]; concentration 50.0 uM, n=2): -4.799% | perc_inhibition_mean ([1]; concentration 100.0 uM, n=2): -2.454% | inhibition at 50 µM ([2]; read-out: perc_inhibition_mean, batch_name=ASAP-0000199-001): -2.81% | inhibition at 50 µM [2, 4]: -4.8% | inhibition at 100 µM [2, 4]: -2.45%

Cc1cc(C(F)(F)F)nn1CCNc1ncnc2[nH]ccc12 [ASAP-0000200]
perc_inhibition_mean ([1]; concentration 50.0 uM): 4.602% | perc_inhibition_mean ([1]; concentration 50.0 uM, n=2): -3.037% | perc_inhibition_mean ([1]; concentration 100.0 uM, n=2): -2.206% | inhibition at 50 µM ([2]; read-out: perc_inhibition_mean, batch_name=ASAP-0000200-001): 4.6% | inhibition at 50 µM [2, 5]: -3.04% | inhibition at 100 µM [2, 5]: -2.21%
